Literature values as cited in patent publication US12662482B2 (The Johns Hopkins University, priority 2020, dated 2026).

Experiments:
NCI60 cancer cell lines = conditions: cited from earlier work
mouse xenograft = mouse xenograft assays; cited from earlier work

CN(C)CCNC(=O)c1cccn2c(=O)c3cc4ccccc4cc3nc12 [BMH-21, 12H-Benzo[g]pyrido[2,1-b]quinazoline-4-carboxamide, N-[2(dimethylamino)ethyl]-12-oxo]
anticancer activity (NCI60 cancer cell lines): anticancer activity
tumor burden (mouse xenograft): reduced tumor burden
